The values below come from patent EP4029501A1, “COMBINATION OF POLYAROMATIC UREA DERIVATIVES AND GLUCOCORTICOID OR HDAC INHIBITOR FOR THE TREATMENT OF DISEASES OR CONDITIONS ASSOCIATED WITH MUSCLE CELLS AND/OR SATELLITE CELLS” (Anagenesis Biotechnologies, priority 2021, dated 2022).

Each structure is given as a SMILES string. Counter-ions that a name gives are not always drawn.

The test system of this assay is muscle progenitors derived from DMD hiPSC. Description: Myotube assay: total myotube area per well (alpha-actinin staining). The format is cell-based, human. The note with it: Homo sapiens, Myotube, 72 h, DMD or WT cell source not given; for Emax: efficacy, MA = normalized Myotube Area, 3 days incubation; for EC50: myogenic activity, half-maximal generation of myotubes, 10 points dose-response 1.5 nM to 30 µM, 3 days. The method, then:
An in vitro assay for assessing the efficacy of compounds for use in treating, ameliorating, delaying, curing and/or preventing a disease or condition associated with muscle cells and/or satellite cells is described in example 78. Herein, the generation of myotubes and satellite cells after adding a compound to a myotube assay workflow is assessed. Said myotube assay workflow is derived from wild-type or DMD human induced pluripotent stem cells (WT hiPSC or DMD hiPSC). Before the addition of said compound, the assay comprises satellite-like cells, but no significant amount of myotubes.
The efficacy of said compound for use in treating, ameliorating, delaying, curing and/or preventing a disease or condition associated with muscle cells and/or satellite cells is positively correlated with the generation of myotubes (i.e. the increase of the area occupied by myotubes on the assay) and/or satellite cells (i.e. the increase of the number of satellite cells) in the assay after adding said compound. The generation of myotubes by the addition of said compound is expressed as the EC50 value, the concentration of said compound that corresponds with the half-maximal generation of myotubes, and the MA (normalized myotube area) value, the normalized area occupied by generated myotubes on the assay. […] Since muscle cells are formed from myotubes during myogenesis, the generation of myotubes in the assay is a good indicator of the ability of said compound to induce the formation of functional muscle cells in vivo. The number of satellite cells is measured as the percentage of Pax7 positive cells, relative to the total number of cells in the assay, as shown in Figure 3. The percentage of Pax7 is a good indicator of the ability of said compound to induce the formation of satellite cells which are able to play a role in muscle repair and regeneration in vivo.
DMD human induced pluripotent stem cells (hereafter "DMD hiPSC"), generated from the NCRM-1 hiPSC WT cell line by gene editing, or WT human induced pluripotent stem cells (hereafter "WT hiPSC"), being NCRM-1 hiPSC wt cell line, have been differentiated according to Chal et al. 2015, 2016, to produce muscle progenitors (hereafter "hMP"). The hMP population contains satellite-like cells (i.e Pax7-positive cells) and satellite cells' progenies (i.e. Myogenin-positive cells).
Figure 1 provides an example of a Myotube assay workflow. At day 0, hMP are thawed and 3.1 million cells are plated into a T75-flask coated with hESC-qualified Matrigel™ (Corning) in SkGM proliferating medium (PromoCells), supplemented with 5 µM Y-27632 (Tocris Bioscience). On day 2, SkGM proliferating medium is refreshed. On day 4, hMP are harvested and transferred into a 384-well plate coated with collagen type I at a density of 3500 cells/well in a DMEM-based medium, containing 5% of knockout serum replacement (Gibco), 1% PenStrep (Gibco), 1% MEM NEAA (Gibco) and 0.1 mM 2-mercaptoethanol (Gibco) (hereafter "K5 medium") and 5 µM Y-27632. Compounds to be tested are then added in the medium and incubated for 3 days at 37°C. On day 7, cells are fixed and immunostained. For example, myotubes (alpha-actinin staining) and satellite-like (Pax7 staining) cells can be analyzed for total myotube area per well or Pax7-positive cell quantification.
DMD hMP were put in the Myotube assay according to the workflow described in Example 2.1. In particular, compound (i) was added at concentrations ranging from 1.5 nM to 30 µM, starting from day 4. hMP were cultivated for three more days in presence of compound (i), then fixed and analyzed for quantification of total myotube area per well. Duplicates of each condition were averaged.

On to `CSc1cc(Oc2ccnc3[nH]c(=O)cnc23)ccc1NC(=O)Nc1nc(-c2ccc(F)c(F)c2)cs1` [(ax), 1-(4-(3,4-difluorophenyl)thiazol-2-yl)-3-(2-(methylthio)-4-((3-oxo-3,4-dihydropyrido[2,3-b]pyrazin-8-yl)oxy)phenyl)urea], for which the Emax lay in the range of 50 to 75% and the half-maximal effective concentration (EC50) was no less than 5000 nM. The corresponding values for `CC(C)c1cc(NC(=O)Nc2ccc(Oc3ccnc4[nH]c(=O)cnc34)cc2F)n(-c2ccccc2)n1` [(b), 1-(2-fluoro-4-((3-oxo-3,4-dihydropyrido[2,3-b]pyrazin-8-yl)oxy)phenyl)-3-(3-isopropyl-1-phenyl-1 H-pyrazol-5-yl)urea] are 25 to 50% and no less than 5000 nM. `CC(C)(C)c1cnc(NC(=O)Nc2ccc(Oc3ccnc4[nH]c(=O)cnc34)c3ccccc23)s1` [(ba), 1-(5-(tert-butyl)thiazol-2-yl)-3-(4-((3-oxo-3,4-dihydropyrido[2,3-b]pyrazin-8-yl)oxy)naphthalen-1-yl)urea] displayed an Emax of no less than 75% and an EC50 of less than 500 nM. The like results for `CC(C)(C)c1cc(NC(=O)Nc2ccc(Oc3ccnc4[nH]c(=O)cnc34)c3ccccc23)n(-c2ccc3ncccc3c2)n1` [(bb), 1-(3-(tert-butyl)-1-(quinolin-6-yl)-1 H-pyrazol-5-yl)-3-(4-((3-oxo-3,4-dihydropyrido[2,3-b]pyrazin-8-yl)oxy)naphthalen-1-yl)urea] were, in that order, no less than 75% and less than 500 nM. The like results for `CSc1cc(Oc2ccnc3[nH]c(=O)cnc23)ccc1NC(=O)Nc1cc(C(C)(C)C)nn1-c1ccc(C)nc1` [(bd), 1-(3-(tert-butyl)-1-(6-methylpyridin-3-yl)-1 H-pyrazol-5-yl)-3-(2-(methylthio)-4-((3-oxo-3,4-dihydropyrido[2,3-b]pyrazin-8-yl)oxy)phenyl)urea] were, in that order, no less than 75% and less than 500 nM.

`CSc1cc(Oc2ccnc3c2CCCN3)ccc1NC(=O)Nc1cc(C(C)(C)C)nn1-c1ccccc1` [(be), 1-(3-(tert-butyl)-1-phenyl-1H-pyrazol-5-yl)-3-(2-(methylthio)-4-((5,6,7,8-tetrahydro-1,8-naphthyridin-4-yl)oxy)phenyl)urea] yielded an Emax of no less than 75% and an EC50 of 1000 to 5000 nM.

In turn, `CNC(=O)c1cc(Oc2ccc(NC(=O)Nc3cc(C(C)(C)C)nn3-c3ccc4ncccc4c3)c3ccccc23)ccn1` [(bf), 4-((4-(3-(3-(tert-butyl)-1-(quinolin-6-yl)-1 H-pyrazol-5-yl)ureido)naphthalen-1-yl)oxy)-N-methylpicolinamide] gave a maximum response (Emax) of no less than 75% and an EC50 of 1000 to 5000 nM. With `CSc1cc(Oc2ccnc3[nH]c(=O)cnc23)ccc1NC(=O)Nc1cc(C(C)(C)C)nn1CCCN1CCOCC1` [(bh), 1-(3-(tert-butyl)-1-(3-morpholinopropyl)-1 H-pyrazol-5-yl)-3-(2-(methylthio)-4-((3-oxo-3,4-dihydropyrido[2,3-b]pyrazin-8-yl)oxy)phenyl)urea], the Emax is no less than 75% and the 50% effective concentration (EC50) was no less than 5000 nM. The corresponding values for `CSc1cc(Oc2ccnc(NC(=O)OC(C)(C)C)c2)ccc1NC(=O)Nc1cc(C(C)(C)C)nn1-c1ccccc1` [(bi), tert-butyl (4-(4-(3-(3-(tert-butyl)-1-phenyl-1H-pyrazol-5-yl)ureido)-3-(methylthio)phenoxy)pyridin-2-yl)carbamate] are no less than 75% and less than 500 nM. The corresponding values for `CSc1cc(Oc2ccnc(N)c2)ccc1NC(=O)Nc1cc(C(C)(C)C)nn1-c1ccccc1` [(bj), 1-(4-((2-aminopyridin-4-yl)oxy)-2-(methylthio)phenyl)-3-(3-(tert-butyl)-1-phenyl-1H-pyrazol-5-yl)urea hydrochloride] are no less than 75% and no less than 5000 nM. The like results for `CC(C)c1cc(Oc2ccnc3[nH]c(=O)cnc23)ccc1NC(=O)Nc1cc(C(C)(C)C)nn1-c1ccccc1` [(bk), 1-(3-(tert-butyl)-1-phenyl-1H-pyrazol-5-yl)-3-(2-isopropyl-4-((3-oxo-3,4-dihydropyrido[2,3-b]pyrazin-8-yl)oxy)phenyl)urea] were, in that order, no less than 75% and no less than 5000 nM. Compound `CC(C)(C)c1cc(NC(=O)Nc2ccc(Oc3ccncc3)cc2)n(-c2ccccc2)n1` [(bl), 1-(3-(tert-butyl)-1-phenyl-1 H-pyrazol-5-yl)-3-(4-(pyridin-4-yloxy)phenyl)urea] registered an Emax of 50 to 75% and an EC50 of 500 to 1000 nM. The corresponding values for `CSc1cc(Oc2ccnc3[nH]c(=O)cnc23)ccc1NC(=O)Nc1cc(C(C)(C)C)nn1-c1ccc2ncccc2c1` [(bm), 1-(3-(tert-butyl)-1-(quinolin-6-yl)-1 H-pyrazol-5-yl)-3-(2-(methylthio)-4-((3-oxo-3,4-dihydropyrido[2,3-b]pyrazin-8-yl)oxy)phenyl)urea] are no less than 75% and less than 500 nM.

`CSc1cc(Oc2ccnc3[nH]c(=O)cnc23)ccc1NC(=O)Nc1cc(C(C)(C)C)nn1C1CCCCC1` [(bn), 1-(3-(tert-butyl)-1-cyclohexyl-1H-pyrazol-5-yl)-3-(2-(methylthio)-4-((3-oxo-3,4-dihydropyrido[2,3-b]pyrazin-8-yl)oxy)phenyl)urea] came in with an Emax of 50 to 75% and an EC50 of no less than 5000 nM.

`CC(C)(C)c1cc(NC(=O)Nc2ccc(Oc3ccnc4[nH]c(=O)cnc34)c(F)c2F)n(-c2ccccc2)n1` [(bo), 1-(3-(tert-butyl)-1-phenyl-1 H-pyrazol-5-yl)-3-(2,3-difluoro-4-((3-oxo-3,4-dihydropyrido[2,3-b]pyrazin-8-yl)oxy)phenyl)urea] registered a maximal response (Emax) of no less than 75% and an EC50 of less than 500 nM. For the compound `CSc1cc(Oc2ccnc(NC(=O)CN(C)C(=O)OC(C)(C)C)c2)ccc1NC(=O)Nc1cc(C(C)(C)C)nn1-c1ccccc1` [(bp), tert-butyl (2-((4-(4-(3-(3-(tert-butyl)-1-phenyl-1H-pyrazol-5-yl)ureido)-3-(methylthio)phenoxy)pyridin-2-yl)amino)-2-oxoethyl)(methyl)carbamate], the Emax is no less than 75% and the EC50 is less than 500 nM.

On to `CNCC(=O)Nc1cc(Oc2ccc(NC(=O)Nc3cc(C(C)(C)C)nn3-c3ccccc3)c(SC)c2)ccn1` [(bq), N-(4-(4-(3-(3-(tert-butyl)-1-phenyl-1H-pyrazol-5-yl)ureido)-3-(methylthio)phenoxy)pyridin-2-yl)-2-(methylamino)acetamide], for which the Emax was no less than 75%. The compound `CNC(=O)c1cc(Oc2ccc(NC(=O)Nc3cc(C(C)(C)C)nn3-c3ccccc3)c(SC)c2)ccn1` [(br), 4-(4-(3-(3-(tert-butyl)-1-phenyl-1H-pyrazol-5-yl)ureido)-3-(methylthio)phenoxy)-N-methylpicolinamide] came in with an Emax of no less than 75% and an EC50 of no less than 5000 nM. Compound `CSc1cc(Oc2ccnc3nccnc23)ccc1NC(=O)Nc1cc(C(C)(C)C)nn1-c1ccccc1` [(bs), 1-(3-(tert-butyl)-1-phenyl-1 H-pyrazol-5-yl)-3-(2-(methylthio)-4-(pyrido[2,3-b]pyrazin-8-yloxy)phenyl)urea] showed an Emax of no less than 75% and a concentration for a half-maximal effect (EC50) of no less than 5000 nM. `CC(C)(C)c1cc(NC(=O)Nc2cc(F)c(Oc3ccnc4[nH]c(=O)cnc34)cc2F)n(-c2ccccc2)n1` [(bt), 1-(3-(tert-butyl)-1-phenyl-1 H-pyrazol-5-yl)-3-(2,5-difluoro-4-((3-oxo-3,4-dihydropyrido[2,3-b]pyrazin-8-yl)oxy)phenyl)urea] registered an Emax of no less than 75% and a concentration giving a half-maximal response (EC50) of 500 to 1000 nM. The corresponding values for `CSc1cc(Oc2cccc3[nH]c(=O)cnc23)ccc1NC(=O)Nc1cc(C(C)(C)C)nn1-c1ccccc1` [(bu), 1-(3-(tert-butyl)-1-phenyl-1H-pyrazol-5-yl)-3-(2-(methylthio)-4-((2-oxo-1,2-dihydroquinoxalin-5-yl)oxy)phenyl)urea] are 25 to 50% and no less than 5000 nM.

As usually defined, the Emax is the greatest response seen or fitted, relative to the assay's reference. As a reminder, the EC50 is the concentration that produces a half-maximal response. A lower EC50 goes with an effect from little substance.
